Results published in patent US20200345725A1, “Methods and Compositions for Treating Cancer” (Omeros Corporation, priority 2019, published 2020).
Where “and” joins values, the source holds several entries; their conditions need not be identical. Identical values can stand only once.

Assays:
Format in all cases: cell-based
[1] = molecular target: T1, ADBR2 (Homo sapiens, UniProt P07550); test: CRE-Luc reporter assay with control receptor ADBR2
T1 construct: host or cells: HEK293 or CHO cell lines (ATCC)
T1 sequence (P07550 whole entry): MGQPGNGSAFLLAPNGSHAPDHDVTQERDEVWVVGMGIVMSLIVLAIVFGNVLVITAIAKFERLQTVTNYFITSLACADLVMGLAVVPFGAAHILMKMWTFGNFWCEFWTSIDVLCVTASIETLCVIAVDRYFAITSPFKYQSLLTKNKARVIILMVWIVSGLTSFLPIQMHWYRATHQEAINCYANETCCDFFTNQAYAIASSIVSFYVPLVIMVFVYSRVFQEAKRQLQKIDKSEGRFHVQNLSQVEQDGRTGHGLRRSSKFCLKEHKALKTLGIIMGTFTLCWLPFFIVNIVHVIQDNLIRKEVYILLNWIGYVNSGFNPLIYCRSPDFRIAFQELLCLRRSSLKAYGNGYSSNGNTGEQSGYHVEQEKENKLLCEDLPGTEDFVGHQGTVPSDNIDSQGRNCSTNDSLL

[2] = molecular target: GPR174 (Homo sapiens, UniProt Q9BXC1); test: CRE-Luc reporter Gs signaling assay with GPR174; design: host or cells: HEK293 or CHO cell lines (ATCC); conditions: for Gs pathway in the presence of GPR174 (CRE-Luc reporter): increasing concentrations of compound; for Fold decrease in Gs signaling activity / EC50: pCRE-Luc reporter; for EC50: multiple values = separate experiments
GPR174, sequence (Q9BXC1 whole entry): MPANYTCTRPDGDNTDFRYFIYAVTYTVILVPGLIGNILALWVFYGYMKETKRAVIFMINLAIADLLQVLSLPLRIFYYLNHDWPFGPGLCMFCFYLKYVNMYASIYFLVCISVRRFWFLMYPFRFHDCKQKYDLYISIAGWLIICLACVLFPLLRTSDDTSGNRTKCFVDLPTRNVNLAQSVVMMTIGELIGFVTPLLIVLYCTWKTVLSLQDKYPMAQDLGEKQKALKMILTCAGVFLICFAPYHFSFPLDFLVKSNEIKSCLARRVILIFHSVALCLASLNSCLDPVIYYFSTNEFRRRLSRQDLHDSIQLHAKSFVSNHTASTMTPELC

[3] = tested on: human PBMCs; test: Cytokines in supernatants of anti-CD3/anti-CD28 stimulated human PBMC (Examples 6, 8, 9); conditions: for IL-2 in culture supernatants (fold over vehicle): day 2 post-stimulation, compound 10 at 1, 3, 10 μM
Protocol: The effect of compound 10 on IL-2 and IFN-γ production in human PBMCs was determined as follows. PBMCs from a single donor were adjusted to a density of 2×10^6 cells/mL, stimulated with 100 ng/mL of anti-CD3 and 100 ng/mL of anti-CD28 antibodies and treated with 1 μM, 3 μM, or 10 μM of compound 10. Supernatant from these cells was taken on day 2 post-stimulation and the levels of IL-2 and IFN-γ were determined by ELISA assay using Ready-SET-Go ELISA kits from Affimetrix Ebioscience according to the manufacturer's instructions.
The effect of compound 10 on IL-2 production in human PBMCs was determined as follows. […] Supernatant from these cells was taken on day 3 post-stimulation and the levels of IL-2 were determined by ELISA assay using Ready-SET-Go™ ELISA kits from Affimetrix Ebioscience and LEGENDplex™ bead-based immunoassays from BioLegend according to the manufacturer's instructions.
The effect of compound 10 on IL-2 production in human PBMC from each donor was determined as follows. PBMC from each donor were adjusted to a density of 2×10^6 cells/mL, stimulated with 100 ng/mL of anti-CD3 and 100 ng/mL of anti-CD28 antibodies and treated with 30 μM compound 10. Supernatant from these cells was taken on day 2 post-stimulation and the levels of IL-2 were determined by ELISA assay using LEGENDplex™ bead-based immunoassays from BioLegend (San Diego, Calif.) according to the manufacturer's instructions.
The effect of compound 10 on the production of a panel of additional cytokines (interleukin 5 (IL-5), interleukin 13 (IL-13), interleukin 6 (IL-6), interleukin 9 (IL-9), interleukin 10 (IL-10), interferon gamma (IFN-γ), tumor necrosis factor alpha (TNF-α), interleukin 17A (IL-17A), interleukin 17F (IL-17F), interleukin 4 (IL-4) and interleukin 22 (IL-22)) in pooled human PBMC obtained from eight donors was determined as follows. PBMC from eight donors were pooled, then adjusted to a density of 2×10^6 cells/mL, stimulated with 100 ng/mL of anti-CD3 and 100 ng/mL of anti-CD28 antibodies and treated with 30 μM compound 10. Supernatant from these cells was taken on day 2 post-stimulation and the levels of IL-5, IL-13, IL-6, IL-9, IL-10, IFN-γ, TNF-α, IL-17A, IL-17F, IL-4 and […] were determined by ELISA using LEGENDplex™ bead-based immunoassays from BioLegend (San Diego, Calif.) according to the manufacturer's instructions.

[4] = Example 9, day 2, PBMC of eight donors, 30 μM

| Compound | Gs pathway in the presence of ADBR2 (CRE-Luc reporter) [1] | Gs pathway in the presence of GPR174 (CRE-Luc reporter) [2] | Fold decrease in Gs signaling activity [2] | EC50 [2] | IL-2 in culture supernatants (fold over vehicle) ([3]; Example 6) | IFN-γ in culture supernatants, fold over vehicle ([3]; Example 6, day 2, 1, 3, 10 μM) | IL-2 in culture supernatants ([3]; Example 8, day 3, single donor, 3, 10, 30, 60 μM) | IFN-γ in culture supernatants, fold over vehicle [3, 4] | IL-6 in culture supernatants, fold over vehicle [3, 4] | IL-10 in culture supernatants, fold over vehicle [3, 4] | IL-17A in culture supernatants, fold over vehicle [3, 4] | TNF-α in culture supernatants, fold over vehicle [3, 4] | IL-2 in culture supernatants, fold over vehicle, average ([3]; Example 9, day 2, eight donors, 30 μM) |
| --- | --- | --- | --- | --- | --- | --- | --- | --- | --- | --- | --- | --- | --- |
| O=C(c1ccccc1)N1CCN(c2cc(N3CCCCC3)c(F)cc2[N+](=O)[O-])CC1 [compound 6] | did not inhibit | inhibited | 3.8 fold | 400 nM and 300 nM | increased IL-2 levels | – | – | – | – | – | – | – | – |
| CC1CCN(c2cc(N3CCN(S(=O)(=O)c4ccccc4)CC3)c([N+](=O)[O-])cc2F)CC1 [compound 10] | did not inhibit | inhibited | 5.1 fold | 200 nM and 500 nM | increased IL-2 levels in a dose-dependent manner | increased interferon gamma (IFN-γ) in a dose-dependent manner | increased IL-2 levels in culture supernatants in a dose-dependent manner | statistically significant fold increase | statistically significant fold increase | statistically significant fold increase | statistically significant fold decrease | statistically significant fold increase | about 5 fold |
